# Test results from patent US9062324B2, “Herbicide tolerant soybean plants and methods for identifying same” (M.S. TECHNOLOGIES LLC, priority 2009, dated 2015).
# What was measured:
# [1] = test system: soybean plants comprising EE-GM3 and EE-GM2; assay: field trial of lines combining EE-GM3 and EE-GM2 sprayed with glyphosate and glufosinate; type: in vivo, Glycine max; details: approximately 40 lines homozygous for tolerance to both herbicides
# Text: A soybean plant containing a combination of elite events EE-GM3 and EE-GM2 has been obtained by conventional crossing between a parent soybean plant comprising EE-GM3 and a parent soybean plant comprising EE-GM2. Progeny plants comprising both events are identified using PCR Identification Protocols for EE-GM2 and EE-GM3 as described herein. Specifically, crosses were made with plants containing EE-GM3 and plants containing EE-GM2. The resulting F1 plants were crossed to 4 conventional lines. The F1s from these crosses were grown in the field and sprayed with glyphosate and glufosinate. F2 seed harvested from F1 plants resistant to both herbicides was then planted. The F2 plants were sprayed with both glyphosate and glufosinate. Nine hundred plants tolerant to both herbicides were harvested and planted in a field trial. Expected Mendelian segregation data for the events was obtained in this trial. Approximately 40 lines homozygous for tolerance to both herbicides were selected for agronomic uniformity for further studies.
# [2] = test system: soybean plants comprising EE-GM3; assay: field trials of EE-GM3 in different commercial genetic backgrounds, herbicide challenge; type: in vivo, Glycine max; details: glyphosate and/or isoxaflutole, different treatments, different locations and genetic backgrounds
# Text: The selected event EE-GM3 was introduced in different commercial genetic backgrounds, and results of field trials on different locations were compared. Plants were challenged with glyphosate herbicide and/or isoxaflutole herbicide using different treatments. […] Hundreds of different soybean cultivars containing event EE-GM3 were used in an inheritance study, and herbicides were applied. Selected lines from this trial were later increased in the field and also treated with herbicide. From that trial, 50 selected lines were increased, and these were also herbicide treated.
Compound,tolerance of selected homozygous lines to herbicide [1],herbicide tolerance of plants [2]
O=C(O)CNCP(=O)(O)O [glyphosate],good tolerance,good herbicide tolerance
CP(=O)(O)CCC(N)C(=O)O (stereo not shown) [glufosinate],good tolerance,–
"CS(=O)(=O)c1cc(C(F)(F)F)ccc1C(=O)c1cnoc1C1CC1 [IFT, (5-cyclopropyl-4-isoxazolyl)[2-(methylsulfonyl)-4-(trifluoromethyl)phenyl]methanone]",–,good herbicide tolerance
